Earlier results, collected in patent US20250387361A1, “METHODS OF ADMINISTERING GAMMA-HYDROXYBUTYRATE COMPOSITIONS WITH DIVALPROEX SODIUM” (Flamel Ireland Limited, priority 2020, published 2025).
Where two headings read alike, the source gives them in different places.

Key:
[1] = cited from earlier work; for apparent oral clearance: 25 mg/kg oral
[2] = biological target: T1, CYP1A2 (Homo sapiens, UniProt P05177); settings: up to 3 mM (378 mcg/mL); cited from earlier work
T1 sequence (P05177 1-516): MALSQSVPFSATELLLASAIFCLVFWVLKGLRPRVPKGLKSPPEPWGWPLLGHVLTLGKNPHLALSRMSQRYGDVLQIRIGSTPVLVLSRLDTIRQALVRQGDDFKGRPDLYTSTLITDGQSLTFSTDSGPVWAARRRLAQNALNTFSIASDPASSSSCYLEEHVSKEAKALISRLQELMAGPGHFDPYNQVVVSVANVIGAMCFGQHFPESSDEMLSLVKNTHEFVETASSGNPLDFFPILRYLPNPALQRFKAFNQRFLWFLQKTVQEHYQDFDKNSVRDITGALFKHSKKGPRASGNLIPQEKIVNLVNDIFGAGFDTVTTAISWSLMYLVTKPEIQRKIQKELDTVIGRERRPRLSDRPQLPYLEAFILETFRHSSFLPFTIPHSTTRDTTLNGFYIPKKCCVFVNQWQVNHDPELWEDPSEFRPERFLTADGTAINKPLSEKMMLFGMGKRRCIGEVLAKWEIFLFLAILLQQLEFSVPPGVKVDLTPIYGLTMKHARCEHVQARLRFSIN

[3] = biological target: CYP2C9 (Homo sapiens, UniProt P11712); settings: up to 3 mM (378 mcg/mL); cited from earlier work
[4] = biological target: CYP2C19 (Homo sapiens, UniProt P33261); settings: up to 3 mM (378 mcg/mL); cited from earlier work
[5] = biological target: CYP2D6 (Homo sapiens, UniProt P10635); settings: up to 3 mM (378 mcg/mL); cited from earlier work
[6] = biological target: CYP2E1 (Homo sapiens, UniProt P05181); settings: up to 3 mM (378 mcg/mL); cited from earlier work
[7] = tested on: CYP3A; settings: up to 3 mM (378 mcg/mL); cited from earlier work
[8] = 18 female and 18 male healthy adults; 4.5 g oral dose; cited from earlier work
[9] = tested on: rats; settings: cited from earlier work
[10] = tested on: bacterial gene mutation; settings: in vitro; cited from earlier work
[11] = tested on: mammalian cells; settings: in vitro; cited from earlier work
[12] = tested on: rat; settings: in vivo; cited from earlier work
[13] = tested on: male and female rats; settings: cited from earlier work
[14] = tested on: pregnant rats; settings: cited from earlier work
[15] = tested on: pregnant rabbits; settings: cited from earlier work
[16] = tested on: rats; settings: cited from earlier work; remark: listed apart in the source
[17] = tested on: rats; settings: cited from earlier work; remark: listed apart in the source

Sequence of CYP2E1 (P05181 whole entry): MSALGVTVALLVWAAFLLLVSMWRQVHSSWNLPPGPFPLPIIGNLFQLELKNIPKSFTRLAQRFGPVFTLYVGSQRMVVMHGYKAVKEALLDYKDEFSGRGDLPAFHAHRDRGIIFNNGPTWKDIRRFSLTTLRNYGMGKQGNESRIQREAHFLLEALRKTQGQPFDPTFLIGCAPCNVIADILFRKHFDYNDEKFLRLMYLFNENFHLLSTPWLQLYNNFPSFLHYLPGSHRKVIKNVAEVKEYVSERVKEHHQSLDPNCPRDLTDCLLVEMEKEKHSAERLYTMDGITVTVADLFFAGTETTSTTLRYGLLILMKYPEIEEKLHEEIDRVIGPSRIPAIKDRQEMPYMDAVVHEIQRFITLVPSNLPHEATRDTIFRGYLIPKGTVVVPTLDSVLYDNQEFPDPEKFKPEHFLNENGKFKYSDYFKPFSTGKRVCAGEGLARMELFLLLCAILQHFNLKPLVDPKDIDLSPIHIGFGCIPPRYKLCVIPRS
Sequence of CYP2D6 (P10635 whole entry): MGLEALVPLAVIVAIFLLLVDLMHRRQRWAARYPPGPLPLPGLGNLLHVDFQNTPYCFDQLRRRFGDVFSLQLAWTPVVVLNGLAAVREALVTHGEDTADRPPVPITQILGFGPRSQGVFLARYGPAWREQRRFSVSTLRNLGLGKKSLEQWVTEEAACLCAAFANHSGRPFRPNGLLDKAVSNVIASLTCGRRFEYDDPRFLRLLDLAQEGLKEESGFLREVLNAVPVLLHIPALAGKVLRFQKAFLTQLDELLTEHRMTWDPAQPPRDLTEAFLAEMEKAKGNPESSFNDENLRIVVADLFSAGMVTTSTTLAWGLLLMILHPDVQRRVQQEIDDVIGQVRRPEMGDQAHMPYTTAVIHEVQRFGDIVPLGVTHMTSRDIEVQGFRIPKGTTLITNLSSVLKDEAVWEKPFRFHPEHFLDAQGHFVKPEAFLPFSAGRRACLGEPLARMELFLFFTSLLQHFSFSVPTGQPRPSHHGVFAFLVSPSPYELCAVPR
Sequence of CYP2C19 (P33261 whole entry): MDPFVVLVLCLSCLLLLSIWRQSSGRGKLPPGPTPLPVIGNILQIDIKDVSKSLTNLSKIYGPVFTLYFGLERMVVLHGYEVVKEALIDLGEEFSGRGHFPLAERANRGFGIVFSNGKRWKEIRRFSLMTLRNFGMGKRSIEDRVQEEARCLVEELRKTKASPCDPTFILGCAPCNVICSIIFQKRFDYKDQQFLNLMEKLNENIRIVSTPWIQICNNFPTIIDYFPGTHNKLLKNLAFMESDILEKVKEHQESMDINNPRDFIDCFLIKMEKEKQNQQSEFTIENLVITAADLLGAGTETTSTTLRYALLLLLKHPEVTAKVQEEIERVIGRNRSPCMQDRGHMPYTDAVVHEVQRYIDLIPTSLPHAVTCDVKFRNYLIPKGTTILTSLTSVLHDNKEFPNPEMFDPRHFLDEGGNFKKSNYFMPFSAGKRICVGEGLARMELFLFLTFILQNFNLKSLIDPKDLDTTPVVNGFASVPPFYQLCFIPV
Sequence of CYP2C9 (P11712 whole entry): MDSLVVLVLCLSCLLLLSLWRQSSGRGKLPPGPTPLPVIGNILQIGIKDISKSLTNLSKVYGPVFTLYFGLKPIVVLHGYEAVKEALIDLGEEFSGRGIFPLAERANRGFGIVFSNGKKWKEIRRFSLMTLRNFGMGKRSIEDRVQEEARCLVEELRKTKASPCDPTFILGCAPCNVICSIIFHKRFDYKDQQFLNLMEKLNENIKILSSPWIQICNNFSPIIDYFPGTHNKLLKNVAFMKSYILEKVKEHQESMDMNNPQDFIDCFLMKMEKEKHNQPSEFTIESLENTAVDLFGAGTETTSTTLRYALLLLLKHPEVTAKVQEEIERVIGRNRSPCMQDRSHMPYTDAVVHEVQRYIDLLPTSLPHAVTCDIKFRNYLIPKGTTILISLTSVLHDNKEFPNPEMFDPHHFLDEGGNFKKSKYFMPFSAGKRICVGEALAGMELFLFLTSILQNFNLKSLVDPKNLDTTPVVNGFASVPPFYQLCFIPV

O=C([O-])CCCO.[Na+] [sodium oxybate, sodium 4-hydroxybutyrate]
apparent oral clearance ([1]; Child's Class A cirrhotic patients): 4.5 mL/min/kg
apparent oral clearance ([1]; Child's Class C cirrhotic patients): 4.1 mL/min/kg
mean t1/2 ([1]; Class C patients): 59 min
apparent oral clearance ([1]; healthy adults): 9.1 mL/min/kg
AUC values in cirrhotic patients vs normal hepatic function ([1]; single oral dose of 25 mg/kg): doubled
inhibition of CYP1A2 activity [2]: does not significantly inhibit
inhibition of CYP2C9 activity [3]: does not significantly inhibit
inhibition of CYP2C19 activity [4]: does not significantly inhibit
inhibition of CYP2D6 activity [5]: does not significantly inhibit
inhibition of CYP2E1 activity [6]: does not significantly inhibit
inhibition of CYP3A activity [7]: does not significantly inhibit
gender differences in pharmacokinetics of GHB [8]: no gender differences were detected
plasma exposure (AUC) at the highest dose tested relative to humans at MRHD of 9 g per night ([9]; 1,000 mg/kg/day): 2 times
tumors ([9]; oral doses up to 1,000 mg/kg/day for 83 (males) or 104 (females) weeks): no increase in tumors
bacterial gene mutation [10]: negative
chromosomal aberration [11]: negative
micronucleus [12]: negative
highest dose tested relative to MRHD on a mg/m^2 basis ([13]; 1,000 mg/kg/day): approximately equal to the MRHD
effects on fertility ([13]; oral 150, 350, or 1,000 mg/kg/day prior to and throughout mating, females through early gestation): no adverse effects on fertility
highest dose tested relative to MRHD of 9 g per night (mg/m^2 basis) ([14]; 1,000 mg/kg/day): approximately 1 times
developmental toxicity ([14]; oral 150, 350, or 1,000 mg/kg/day throughout organogenesis): no clear evidence of developmental toxicity
highest dose tested relative to MRHD of 9 g per night (mg/m^2 basis) ([15]; 1,200 mg/kg/day): ~3 times
developmental toxicity ([15]; oral 300, 600, or 1,200 mg/kg/day throughout organogenesis): no clear evidence of developmental toxicity
pre- and postnatal findings ([16]; oral 150, 350, or 1,000 mg/kg/day, at the highest dose tested): increased stillbirths and decreased offspring postnatal viability and body weight gain
no-effect dose for pre- and postnatal developmental toxicity relative to MRHD (mg/m^2 basis) ([16]; rat, in vivo): less than the MRHD
growth and maturation findings ([17]; at the highest dose tested (900 mg/kg/day)): Reduced body weight gain in males and females and delayed sexual maturation in males
mortality ([17]; oral 0, 100, 300, or 900 mg/kg/day, postnatal days 21 through 90): mortality was observed at the two highest doses tested
